Test [1] deals with HepG2. The test can be described thus: Cytotoxicity (anticancer screening) on HepG2. Type of test: cell-based, human. The following applies: for IC50: HepG2, human hepatocellular liver carcinoma cell line, 72 h of incubation; for activity class against HepG2: SAR statement, four tested cell lines. The text has this: (§1) Keeping the aforementioned details in mind, the objective of this study was to synthesize new pharmaceuticals for anticancer assessment as a trial to produce newer antitumor drugs with increased activity and minimal adverse effects. Human hepatocellular liver carcinoma cell line (HepG2), human lung fibroblast cell line (WI-38), human breast adenocarcinoma cell line (MCF-7), and normal adult African green monkey kidney cell line (VERO) were the four different types of […] cell lines used to test the anticancer activity of all newly synthesized compounds (Fig. 5).
(§2) It was carried out according to the previously reported work[48].

The subject of test [2] is WI-38. Nature of the test: Cytotoxicity (anticancer screening) on WI-38. The format is cell-based, human. The following applies: for IC50: WI-38, human lung fibroblast cell line, 72 h of incubation; for activity class against WI-38: SAR statement, four tested cell lines.
From the text: as §1, §2

In test [3] the test system is VERO. The test can be described thus: Cytotoxicity (anticancer screening) on VERO. The format is cell-based. The following applies: Chlorocebus sabaeus, normal adult African green monkey kidney cell line, 72 h of incubation.
From the text: as §1, §2

Test [4] has as its system MCF-7. Nature of the test: Cytotoxicity (anticancer screening) on MCF-7. The format is cell-based, human. The settings on record: for IC50: MCF7, human breast adenocarcinoma cell line, 72 h of incubation; for activity class against MCF-7: SAR statement, four tested cell lines.
From the text: as §1, §2

Molecules are shown by their SMILES. ≈ marks a conversion by molar mass, not a printed value.

For `Cc1cc(=O)oc2c1ccc1oc(=N)c(C#N)cc12` [Compound 3, 8-imino-4-methyl-2-oxo-2 H,8 H-pyrano[2,3-f]chromene-9-carbonitrile], the IC50 in test [1] stood at 59 ± 0.22 µg/mL (≈ 234 µM); in test [2] it was 68.2 ± 0.07 µg/mL (≈ 270 µM); in test [3] it was 71.02 ± 0.05 µg/mL (≈ 282 µM); in test [4], 70 ± 0.06 µg/mL (≈ 278 µM).
With `Cc1cc(=O)oc2c1ccc1oc3nc(CC#N)nc(=N)c-3cc12` [Compound 4, 2-(11-Imino-4-methyl-2-oxo-2 H,11 H-pyrano[2’,3’:5,6]chromeno[2,3-d]pyrimidin-9-yl) acetonitrile], the IC50 stood at 24.5 ± 0.11 µg/mL (≈ 77 µM) in test [1], 31 ± 0.01 µg/mL (≈ 97.4 µM) in test [2], 34.1 ± 0.15 µg/mL (≈ 107 µM) in test [3] and 31.4 ± 0.11 µg/mL (≈ 98.7 µM) in test [4].
`Cc1cc(=O)oc2c3c(ccc12)Oc1nc(CC#N)nc2nc(N)c(C#N)c-3c12` [Compound 5, 2-amino-5-(cyanomethyl)-10-methyl-12-oxo-12 H-7,13-dioxa-3,4,6-triazabenzo[no]tetraphene-1-carbonitrile]: the IC50 in test [1] turned out to be 21.2 ± 1.22 µg/mL (≈ 55.4 µM); in test [2], 27.5 ± 0.31 µg/mL (≈ 71.9 µM); in test [3], 31.2 ± 0.02 µg/mL (≈ 81.6 µM); in test [4], 30 ± 1.01 µg/mL (≈ 78.5 µM).
The like results for `O=c1[nH]cc(F)c(=O)[nH]1` [Compound 5-Flu, 5-fluorouracil, reference compound] were, in that order, 2.5 ± 1.03 µg/mL (≈ 19.2 µM), 5.5 µg/mL (≈ 42.3 µM), 4 ± 0.04 µg/mL (≈ 30.8 µM) and 3 ± 0.02 µg/mL (≈ 23.1 µM).
The corresponding values for `Cc1cc(=O)oc2c3c(ccc12)Oc1nc(CC#N)nc2nc(-c4ccccc4)cc-3c12` [Compound 6, 2-(10-Methyl-12-oxo-2-phenyl-12 H-7,13-dioxa-3,4,6-triazabenzo[no]tetraphene-5-yl) acetonitrile] are 19.1 ± 1.13 µg/mL (≈ 45.6 µM), 26 ± 0.21 µg/mL (≈ 62.1 µM), 24.1 ± 0.19 µg/mL (≈ 57.6 µM) and 22.5 ± 0.04 µg/mL (≈ 53.8 µM).
In the case of `Cc1cc(=O)oc2c3c(ccc12)Oc1nc(CC#N)nc2nc4c(c-3c12)CCC4` [Compound 7, 2-(14-Methyl-12-oxo-9,10-dihydro-8 H,12 H-3,11-dioxa-4,6,7-triazaindeno[6,5,4-no]tetraphen-5-yl)acetonitrile], in test [1], inhibition was half-maximal at 9.6 ± 1.22 µg/mL (≈ 25.1 µM) (IC50) and the “activity class against HepG2” value is given as “very strong (1–10 (very strong))”. For the same compound, in test [2], the “activity class against WI-38” value is “very strong (1–10 (very strong))” and the IC50 came to 9.9 ± 1.04 µg/mL (≈ 25.9 µM). Besides, it took 11.5 ± 0.05 µg/mL (≈ 30.1 µM) to reach half-maximal inhibition in test [3] (IC50). In test [4], it took 9.5 ± 0.04 µg/mL (≈ 24.8 µM) to reach half-maximal inhibition (IC50) and the “activity class against MCF-7” value is given as “very strong (1–10 (very strong))”.
As for `Cc1cc(=O)oc2c3c(ccc12)Oc1nc(CC#N)nc2nc4c(c-3c12)CCCC4` [Compound 8, 2-(15-Methyl-13-oxo-8,9,10,11-tetrahydro-13 H-3,12-dioxa-4,6,7-triazanaphtho[3,2,1-no]tetraphen-5-yl)acetonitrile], in test [1], 4.9 ± 0.11 µg/mL (≈ 12.4 µM) corresponded to half-maximal inhibition (IC50) and the “activity class against HepG2” value was “very strong (1–10 (very strong))”. In addition, in test [2], the “activity class against WI-38” value is “very strong (1–10 (very strong))” and the IC50 was determined as 7.5 ± 0.01 µg/mL (≈ 18.9 µM). In addition, in test [3], half-maximal inhibition (IC50) was put at 5.7 ± 0.06 µg/mL (≈ 14.4 µM). For the same compound, in test [4], the midpoint of inhibition, the IC50, lay at 5.1 ± 0.18 µg/mL (≈ 12.9 µM) and the “activity class against MCF-7” value is recorded as “very strong (1–10 (very strong))”.
Consider `Cc1cc(=O)oc2c3c(ccc12)Oc1nc(CC#N)nc2nc4c(c-3c12)CCCCC4` [Compound 9, 2-(16-Methyl-14-oxo-9,10,11,12-tetrahydro-8 H,14 H-3,13-dioxa-4,6,7-triazacyclohepta[4,5]benzo[1,2,3-no]tetraphen-5-yl)acetonitrile], for which the IC50 is 5.4 ± 1.22 µg/mL (≈ 13.2 µM) in test [1], 5.9 ± 0.03 µg/mL (≈ 14.4 µM) in test [2], 6.6 ± 0.02 µg/mL (≈ 16.1 µM) in test [3] and 7.2 ± 1.02 µg/mL (≈ 17.5 µM) in test [4]. The “activity class against HepG2” value in test [1] is “very strong (1–10 (very strong))”. Also, in test [2], the “activity class against WI-38” value was “very strong (1–10 (very strong))”. Further, the “activity class against MCF-7” value in test [4] is “very strong (1–10 (very strong))”.
`Cc1cc(=O)oc2c3c(ccc12)Oc1nc(CC#N)nc2nc4c(c-3c12)CCCCCC4` [Compound 10, 2-(17-Methyl-15-oxo-8,9,10,11,12,13-hexahydro-15 H-3,14-dioxa-4,6,7-triazacycloocta[4,5]benzo[1,2,3-no]tetraphen-5-yl)acetonitrile]: the IC50 in test [1] stood at 5.8 ± 1.03 µg/mL (≈ 13.7 µM); in test [2], 7.8 ± 0.1 µg/mL (≈ 18.4 µM); in test [3] it was 8.2 ± 1.04 µg/mL (≈ 19.3 µM); in test [4], 8.9 ± 1.02 µg/mL (≈ 21 µM). In addition, the “activity class against HepG2” value in test [1] is “very strong (1–10 (very strong))”. Further, the “activity class against WI-38” value in test [2] is “very strong (1–10 (very strong))”. Also, the “activity class against MCF-7” value in test [4] is “very strong (1–10 (very strong))”.
Regarding `Cc1cc(=O)oc2c1ccc1[nH]c(=O)c(C#N)cc12` [Compound 11, 4-Methyl-2,8-dioxo-7,8-dihydro-2 H-pyrano[2,3-f]quinoline-9-carbonitrile], the concentration for half-maximal inhibition (IC50) in test [1] is 32.2 ± 1.22 µg/mL (≈ 128 µM); in test [2], 39.01 ± 0.07 µg/mL (≈ 155 µM); in test [3], 35.5 ± 0.01 µg/mL (≈ 141 µM); in test [4], 33.3 ± 1.06 µg/mL (≈ 132 µM).
Turning to `Cc1cc(=O)oc2c1ccc1oc(=N)c(C(N)=O)cc12` [Compound 12, 8-Imino-4-methyl-2-oxo-2 H,8 H-pyrano[2,3-f]chromene-9-carboxamide], the IC50 in test [1] turned out to be 37.5 ± 1.13 µg/mL (≈ 139 µM); in test [2], 48.2 ± 1.04 µg/mL (≈ 178 µM); in test [3] it was 51.3 ± 1.05 µg/mL (≈ 190 µM); in test [4], 49.4 ± 0.19 µg/mL (≈ 183 µM).
As for `Cc1cc(=O)oc2c3c(ccc12)NC(=O)C1=C(N)OC2=C(CCC2)C13` (centres unmarked) [Compound 13, 2-Amino-7-methyl-10c,11,12,13-tetrahydro-3 H-cyclopenta[5,6]pyrano[3,4-c]pyrano[2,3-f]quinoline-3,9(4 H)-dione], the IC50 came out at 45.2 ± 1.13 µg/mL (≈ 134 µM) in test [1], 56 ± 1.14 µg/mL (≈ 166 µM) in test [2], 58.2 ± 1.05 µg/mL (≈ 173 µM) in test [3] and 53 ± 0.19 µg/mL (≈ 158 µM) in test [4].
With `Cc1cc(=O)oc2c3c(ccc12)OC(N)=C1C(=O)NC2=C(CCC2)C13` (centres unmarked) [Compound 14, 3-Amino-7-methyl-10c,11,12,13-tetrahydro-9 H-cyclopenta[b]pyrano [2’,3’:5,6]chromeno [4,3-d]pyridine-2,9(1 H)-dione], the IC50 worked out at 49 ± 1.22 µg/mL (≈ 146 µM) in test [1], 56 ± 0.32 µg/mL (≈ 166 µM) in test [2], 58 ± 1.02 µg/mL (≈ 172 µM) in test [3] and 52 ± 0.01 µg/mL (≈ 155 µM) in test [4].
Consider `Cc1cc(=O)oc2c1ccc1oc(=O)c(C#N)cc12` [Compound 15, 4-Methyl-2,8-dioxo-2 H,8 H-pyrano[2,3-f]chromene-9-carbonitrile], for which the IC50 in test [1] is 35.2 ± 1.13 µg/mL (≈ 139 µM); in test [2] it was 38 ± 1.22 µg/mL (≈ 150 µM); in test [3], 40.3 ± 1.19 µg/mL (≈ 159 µM); in test [4], 37.03 ± 0.04 µg/mL (≈ 146 µM).
The corresponding values for `CCOC(=O)c1cc2c(ccc3c(C)cc(=O)oc32)oc1=N` [Compound 16, ethyl 8-imino-4-methyl-2-oxo-2 H,8 H-pyrano[2,3-f]chromene-9-carboxylate] are 52.5 ± 1.22 µg/mL (≈ 175 µM), 59.3 ± 1.04 µg/mL (≈ 198 µM), 57.5 ± 0.05 µg/mL (≈ 192 µM) and 52.1 ± 0.04 µg/mL (≈ 174 µM).
The corresponding values for `Cc1cc(=O)oc2c1ccc1oc(=N)c3c(=O)oc4c(c3c12)CCC4` [Compound 17, 3-Imino-7-methyl-3,11,12,13-tetrahydro-2 H,9 H-cyclopenta[5,6]pyrano[3,4-c]pyrano [2,3-f]chromene-2,9-dione] are 40.2 ± 0.23 µg/mL (≈ 120 µM), 53.5 ± 0.1 µg/mL (≈ 160 µM), 56.2 ± 1.06 µg/mL (≈ 168 µM) and 52.5 ± 0.18 µg/mL (≈ 157 µM).
The like results for `CCOC(=O)c1cc2c(ccc3c(C)cc(=O)oc32)oc1=O` [Compound 18, Ethyl 4-methyl-2,8-dioxo-2 H,8 H-pyrano[2,3-f]chromene-9-carboxylate] were, in that order, 54 ± 0.22 µg/mL (≈ 180 µM), 60.4 ± 0.03 µg/mL (≈ 201 µM), 66.5 ± 1.02 µg/mL (≈ 221 µM) and 57 ± 1.23 µg/mL (≈ 190 µM).

As usually defined, the IC50 is the concentration that gives 50% inhibition.

Values taken from PMC12181260, “Design and synthesis of novel pyridopyrimidine moieties linked to coumarin ring of potentially active cytotoxic agents and their docking study” (Scientific Reports, 2025).
